The conditions of series [1]: human, in vivo, 28 days.
Series [2] can be described thus: Plasma pharmacokinetics, non-compartmental analysis. Type of series: in vivo, human. Particulars: for AUC(0-t) / Cmax / half-life: human, plasma, po.
Series [3] can be described thus: Exposure-toxicity associations. The class given is in vivo, human. The note with it: course 1.

This is an account of results in publication PMC8414988 (Pediatric blood & cancer, 2021).

Broadly, the AUC(0-t) is exposure summed from dosing to a finite time, without extrapolation to infinity. For orientation: Cmax means the maximum level reached in the sampled fluid or tissue. As usually defined, the half-life is the time in which the quantity being followed falls by half. Turning to `CC(=O)c1c(C)c2cnc(Nc3ccc(N4CCNCC4)cn3)nc2n(C2CCCC2)c1=O` [palbociclib], the “Dose limiting toxicities observed” value in series [1] was “grade 4 neutropenia and grade 3 thrombocytopenia and dehydration”. Moreover, the “Cmax (mean ± SD)” value in series [2] (50 mg/m^2 oral, Day 1 (single dose), N=7) is listed as 69.3 ± 43.7 ng/mL. The “AUC0-Tlast (mean ± SD)” value in series [2] (75 mg/m^2 oral, Day 21 (repeated doses), N=17) stood at 2219 ± 1086 ng·h/mL. Moreover, the AUC(0-t) was 1160 ng·h/mL in series [2] (50 mg/m2, AUC0-Tlast (median (range)), 50 mg/m^2 oral, Day 1 (single dose), N=7); 1230 ng·h/mL in series [2] (50 mg/m2, AUC0-Tlast (median (range)), 50 mg/m^2 oral, Day 21 (repeated doses), N=6); 1830 ng·h/mL in series [2] (75 mg/m2, AUC0-Tlast (median (range)), 75 mg/m^2 oral, Day 1 (single dose), N=21); 2270 ng·h/mL in series [2] (75 mg/m2, AUC0-Tlast (median (range)), 75 mg/m^2 oral, Day 21 (repeated doses), N=17); 2410 ng·h/mL in series [2] (95 mg/m2, AUC0-Tlast (median (range)), 95 mg/m^2 oral, Day 1 (single dose), N=6); 2190 ng·h/mL in series [2] (95 mg/m2, AUC0-Tlast (median (range)), 95 mg/m^2 oral, Day 21 (repeated doses), N=2). Moreover, the Cmax in series [2] (50 mg/m2, Cmax (median (range)), 50 mg/m^2 oral, Day 1 (single dose), N=7) was 54.9 ng/mL; in series [2] (50 mg/m2, Cmax (median (range)), 50 mg/m^2 oral, Day 21 (repeated doses), N=6), 77.2 ng/mL; in series [2] (75 mg/m2, Cmax (median (range)), 75 mg/m^2 oral, Day 1 (single dose), N=21), 94 ng/mL. In addition, the half-life in series [2] (50 mg/m2, Half-life (median (range)), 50 mg/m^2 oral, Day 1 (single dose), N=7) is 780 min; in series [2] (50 mg/m2, Half-life (median (range)), 50 mg/m^2 oral, Day 21 (repeated doses), N=6), 1040 min; in series [2] (75 mg/m2, Half-life (median (range)), 75 mg/m^2 oral, Day 1 (single dose), N=21) it was 798 min; in series [2] (75 mg/m2, Half-life (median (range)), 75 mg/m^2 oral, Day 21 (repeated doses), N=17) it was 864 min; in series [2] (95 mg/m2, Half-life (median (range)), 95 mg/m^2 oral, Day 1 (single dose), N=6), 876 min; in series [2] (95 mg/m2, Half-life (median (range)), 95 mg/m^2 oral, Day 21 (repeated doses), N=2), 678 min. Besides, in series [2] (within 50 and 95 mg/m^2, single and repeated doses), the “dose dependence of mean Cmax and AUC0-Tlast” value is given as “increased in proportional manner”. Moreover, the “association of pharmacokinetic variables with thrombocytopenia or lymphopenia” value in series [3] is listed as “No association was found”.
